Measurements taken from US10947188B2, “Small molecule ferroptosis inducers” (THE TRUSTEES OF COLUMBIA UNIVERSITY IN THE CITY OF NEW YORK, priority 2016, dated 2021).
In brackets after ≈: the same amount, converted by molar mass.

System: HT-1080 cells
Experiment: Lethality of commercially available CIL41/70 structural analogs
Type: cell-based
Details: tested once in technical triplicates; for EC50: Homo sapiens
Protocol: 1,000 cells per 36 μl were seeded in each well in 384-well plates. Lethal compounds were dissolved, and a twofold, 12-point dilution series was prepared in DMSO. Compound solutions were further diluted with media at 1:25, and 4 μl per well of the diluted solutions was added to cell cultures immediately after cells were seeded. […] When other cell-death-modulating compounds (100 nM sodium selenite, 1 μM cerivastatin, 100 μg/mL mevalonic acid) were used in cotreatments, they were supplemented to cell culture for 24 h before lethal compounds were added to cell culture, after which cells were further incubated for 24 h at 37° C. under 5% CO2. On the day of the viability measurement, we added 10 μl per well of 50% Alamar Blue diluted in media (Life Technologies) and further incubated the cells at 37° C. for 6 h. Fluorescence intensity (excitation/emission: 530/590) was measured with a Victor 3 plate reader (PerkinElmer), and the normalized viability was calculated as VL=(IL−I0)/(IV−I0), where VL, I0, IV, and IL are the normalized viability and the raw fluorescence intensities from the wells containing media, cells treated with a vehicle (negative control), and cells with the lethal compound (L), respectively. When the effect of a chemical modulator (M) on L was calculated, we instead used the equation VL|M=(IM,L−I0)/(IM,V−I0), where VL|M, IM,L and IM,V are the normalized viability, and fluorescence intensity from cells treated with […], respectively. The viability was typically measured in biological triplicate unless otherwise specified. A representative dose-response curve, the mean and standard error of normalized viability from one replicate were plotted. HT-1080 viability after modulator treatments corresponding to FIG. 3C and FIGS. 5E-5F is available in FIGS. 19A-19C.
Their lethality was tested once in HT-1080 cells in technical triplicates.

Structure (SMILES) | EC50 [µg/mL] | EC50 of CIL41/70 and structural analogs (lethality)
CC(C)c1ccc(OCC(=O)O/N=C(\N)Cc2cccc3ccccc23)cc1 [CB90] | > 20 | –
CC(C)(C)c1ccc(OCC(=O)O/N=C(\N)Cc2ccc([N+](=O)[O-])cc2)cc1 [CB7] | > 20 | –
COc1ccccc1C/C(N)=N/OC(=O)COc1ccc(C)cc1Br [CB22] | > 20 | –
N/C(COc1cccc(Cl)c1)=N\OC(=O)CCn1cc(C(F)(F)F)ccc1=O [MB16] | > 20 | –
CC(C)(C)C(=O)O/N=C(\N)COc1ccc(C(C)(C)C)cc1 [MB14] | 2.6 (≈ 8.49 µM) | –
CC(=NOCC(=O)ON=C(N)COc1ccc(Cl)cc1Cl)c1ccc(Cl)cc1 [MB4] | – | MB4 (>20 ug/mL)
COc1ccccc1C/C(N)=N/OC(=O)COc1ccc(C(C)(C)C)cc1 [CB5] | > 20 | –
COc1ccc(C/C(N)=N/OC(=O)COc2ccccc2C)cc1 [CB31] | > 20 | –
COc1ccc(OCC(=O)O/N=C(\N)Cc2cccs2)cc1 [CB74] | > 20 | –
CC(C)(C)c1ccc(C(=O)O/N=C(\N)Cc2cccs2)cc1 [B02] | 3.3 (≈ 10.4 µM) | –
CC(C)(C)C(=O)O/N=C(\N)Cc1ccc([N+](=O)[O-])cc1 [CB14] | 14 (≈ 50.1 µM) | –
COc1ccc(CC(=O)O/N=C(\N)Cc2ccc(OC)cc2)cc1 [CB84] | > 20 | –
N/C(Cc1ccc(Cl)cc1Cl)=N\OC(=O)Cc1cccs1 [CB100] | > 20 | –
N/C(Cc1ccc(Cl)cc1Cl)=N\OC(=O)CSc1ccccc1 [CB133] | > 20 | –
N/C(Cc1ccc([N+](=O)[O-])cc1)=N\OC(=O)C1CCCCC1 [CB2] | > 20 | –
Cc1cc(C)c(C)c(OCC(=O)O/N=C(\N)Cc2cccc3ccccc23)c1 [CB121] | > 20 | –

Structure (SMILES) | EC50 [µg/mL] | EC50 of CIL41/70 and structural analogs (lethality)
Cc1ccc(OCC(=O)O/N=C(\N)Cc2ccc([N+](=O)[O-])cc2)c(Br)c1 [CB25] | > 20 | –
COc1ccc(CC(=O)O/N=C(\N)Cc2ccc([N+](=O)[O-])cc2)cc1OC [CB51] | > 20 | –
COc1ccc(C/C(N)=N/OC(=O)COc2cccc3ccccc23)cc1 [CB10] | > 20 | –
Cc1cccc(OCC(=O)O/N=C(\N)Cc2ccc(Cl)cc2Cl)c1C [CB120] | > 20 | –
COc1ccc(C/C(N)=N/OC(=O)COc2ccc(C)c(C)c2)cc1 [CB91] | > 20 | –
Cc1ccc(OCC(=O)O/N=C(\N)Cc2ccc(Cl)cc2Cl)cc1C [CB87] | > 20 | –
Cc1cc(C(F)(F)F)nn1C/C(N)=N/OC(=O)CC12CC3CC(CC(C3)C1)C2 [ZE8] | > 20 | –
COc1ccc(C/C(N)=N/OC(=O)Cc2ccc(OC)c(OC)c2)cc1 [CB60] | > 20 | –
COc1ccccc1C/C(N)=N/OC(=O)CC(c1ccccc1)c1ccccc1 [CB122] | 0.98 (≈ 2.52 µM) | –
CC(C)(Oc1ccc(Cl)cc1)C(=O)O/N=C(\N)Cc1ccc(Cl)cc1Cl [CB119] | > 20 | –
N/C(Cc1ccc([N+](=O)[O-])cc1)=N\OC(=O)Cc1ccccc1 [CB80] | > 20 | –
N/C(Cc1cccc2ccccc12)=N\OC(=O)COc1ccccc1Cl [CB73] | > 20 | –
COc1ccc(/C=C/C(=O)O/N=C2\CCCCCN2)cc1OC [EN2] | 10.5 (≈ 33 µM) | –
CC(C)(C)C(=O)O/N=C(\N)Cc1cccc2ccccc12 [MB13] | > 20 | –
Cc1ccc(OCC(=O)O/N=C(\N)Cc2ccc([N+](=O)[O-])cc2)cc1C [CB92] | > 20 | –
Cc1ccccc1OCC(=O)O/N=C(\N)Cc1ccc(Cl)cc1Cl [CB28] | > 20 | –
